Assay results reported in paper PMC7170388, “Strong inhibitory activities and action modes of lipopeptides on lipase” (Journal of Enzyme Inhibition and Medicinal Chemistry, 2020).
Converted amounts (≈) assume the structure as drawn. Read-outs that look alike come from different tables or passages of the source. No end group written: not given here.

Legend:
lipase = settings: cited from earlier work; for IC50 on lipase: previously reported
Excerpt: The inhibition mechanisms of crude lipopeptide, fengycin, and surfactin on lipase catalysis were studied.

[1] = reported to cause certain side effects; cited from earlier work
Excerpt: Dietary and lifestyle modifications such as calorie restriction and physical exercises are the common strategies adopted to control body weight; further, these methods have limited anti-obesity effects. It has previously been reported that lipase inhibition is a potential strategy for counteracting obesity. Digestive lipase hydrolyses non-absorbable dietary triglycerides to smaller absorbable molecules of monoglycerides and free fatty acids, which are absorbed by the intestine. Inhibiting digestive lipase can reduce intestinal fat absorption. Human pancreatic lipase is the main enzyme ...

Mucor miehei lipase [2] = target: T1, Mucor miehei lipase (Mucor miehei, UniProt P19515 95-363)
T1 sequence (looked up): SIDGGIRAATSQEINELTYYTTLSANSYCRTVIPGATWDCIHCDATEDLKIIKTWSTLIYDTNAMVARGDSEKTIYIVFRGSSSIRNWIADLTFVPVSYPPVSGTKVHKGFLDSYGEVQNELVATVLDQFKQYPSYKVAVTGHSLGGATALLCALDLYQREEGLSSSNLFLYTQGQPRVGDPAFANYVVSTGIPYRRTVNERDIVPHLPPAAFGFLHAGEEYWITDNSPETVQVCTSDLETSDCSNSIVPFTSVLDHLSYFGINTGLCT

Mucor miehei lipase [3] = target: T1, Mucor miehei lipase; test: other fluorescence titration; quenching of the intrinsic fluorescence of lipase (emission peak 338 nm) by crude lipopeptide at 0-0.457 mg/mL; Stern-Volmer and double-logarithmic plots
Mucor miehei lipase [4] = target: T2, Mucor miehei lipase (Rhizomucor miehei, UniProt P19515); test: Lipase inhibition (4-NPP hydrolysis, 405 nm); settings: relative to iturin
T2 sequence (P19515 95-363): T1 sequence (looked up)
Procedure: Lyophilised powder of Mucor miehei lipase (EC3.1.1.3), 4-Nitrophenyl palmitate (4-NPP), iturin, and surfactin were purchased from Sigma-Aldrich (St. Louis, MO). Acetonitrile, hydrochloric acid (HCl) and Tris were purchased from Sinopharm (Shanghai, China).
The lipase inhibition was determined according to the method described by Liu et al.[21] 10 µg/mL lipase in water and 7.5 mmol/L 4-NPP in acetonitrile solutions were prepared. […] The 1 mL reaction mixture contained 0.75 mM 4-NPP, 0.4 µg/mL lipase, and different concentrations of inhibitor in Tris-HCl buffer (pH 7.8). The reaction was carried out at 37 °C and the detection wavelength was set at 405 nm.

Mucor miehei lipase [5] = target: T2, Mucor miehei lipase; test: Inhibition mechanism and type of lipopeptides on lipase (activity vs enzyme concentration; Lineweaver-Burk); assay type: biochemical; set-up: purchased Sigma-Aldrich (St. Louis, MO); settings: for Inhibition effect: Type: Lineweaver-Burk plot, Tris-HCl buffer, 100 µL lipase; for IC50, Calculated: calculated value of Table 2; for Inhibition effect: Mechanisms: remaining enzyme activity vs enzyme concentration, lines intersecting at the origin, fixed substrate; for Inhibition constant KI: secondary plot of 1/Vm versus inhibitor concentration
Procedure: The inhibition mechanisms were studied by fixing the concentration of substrate and changing the lipopeptides and enzymes to monitor enzymatic reaction. The inhibition types were determined based on the Lineweaver-Burk plot[22]; this reaction system contained different concentrations of substrate and lipopeptide and 100 µL of lipase in Tris-HCl buffer. Then, the inhibition constant was calculated from a secondary plot of 1/Vm versus the inhibitor concentration.

Mucor miehei lipase [6] = target: T1, Mucor miehei lipase; remark: listed apart in the source
[7] = from 72 mN/m; cited from earlier work
Excerpt: In fact, it has been reported that bacterial cyclic lipopeptides are the most popular amphiphilic molecules that are excellent surface active compounds[12]. The genus Bacillus is described as an efficient source of lipopeptide biosurfactants. The Bacillus lipopeptides are divided into three different families, including iturins, surfactins, and fengycins, ...

Mucor miehei lipase [8] = target: T1, Mucor miehei lipase; test: cell-based or functional assay

For `O=C(O)c1ccco1` [furoic acid], which “inhibition mechanism on lipase” value (lipase) is on record?
Its value is “reversible”.

What about the IC50 on lipase (lipase) of the same molecule?
The IC50 on lipase was 242 mg/L (≈ 2.16 mM).

With `CCCCCCCCCCC[C@@H](C[C@@H]1OC(=O)[C@H]1CCCCCC)OC(=O)[C@H](CC(C)C)NC=O` [orlistat] as the molecule, how does the “inhibition mechanism on lipase” value (lipase) read?
Its value is “irreversible”.

And the side effects [1]?
The side effects was “oily stools, oily spotting, and flatulence”.

Which “inhibition mechanism on lipase” value (lipase) does the source give for `O=C(O)C(=O)O` [oxalic acid] here?
The value was “reversible”.

And the IC50 on lipase (lipase)?
Its IC50 on lipase is 1425 mg/L (≈ 15.8 mM).

What does the source list for “crude lipopeptide from Bacillus velezensis FJAT-52631”?
IC50 (calculated) of inhibition of lipase activity (Mucor miehei lipase [2]): 8 mg/L; IC50 (measured) of inhibition of lipase activity (4-NPP hydrolysis) (Mucor miehei lipase [2]): 11 mg/L; Ksv (Stern-Volmer quenching constant) (Mucor miehei lipase [3]): 0.525 L/g; stoichiometry N (Mucor miehei lipase [3]): 0.78

With fengycin as the molecule, how does the “stronger lipase inhibition activity than iturin” value (Mucor miehei lipase [4]) read?
Its value is “about 10 -fold”.

And the “Inhibition effect: Type” value (Mucor miehei lipase [5])?
The value was “Competitive inhibition”.

And the “Inhibition effect: Type” value (Mucor miehei lipase [5]; listed as fengycin)?
Its value is “competitive”.

What about the “IC50, Calculated” value (Mucor miehei lipase [5]) of the same molecule?
Its value is 2 mg/L.

And the “Inhibition effect: Mechanisms” value (Mucor miehei lipase [5])?
The value was “Reversible”.

And the “Inhibition constant KI” value (Mucor miehei lipase [5])?
The value was 1 mg/L.

Which IC50 of inhibition of lipase activity (4-NPP hydrolysis) (Mucor miehei lipase [6]) does the source give for iturin standard (peptide) here?
Its IC50 of inhibition of lipase activity (4-NPP hydrolysis) is 56 mg/L.

For “purified fengycin from Bacillus velezensis FJAT-52631 (peptide)”, which IC50 (calculated) of inhibition of lipase activity (Mucor miehei lipase [2]) is on record?
The IC50 (calculated) of inhibition of lipase activity was 2 mg/L.

What about the IC50 (measured) of inhibition of lipase activity (4-NPP hydrolysis) (Mucor miehei lipase [2]) of the same molecule?
The IC50 (measured) of inhibition of lipase activity (4-NPP hydrolysis) was 5 mg/L.

For surfactin, which “surface tension of water lowered to” value [7] is on record?
Its value is 27 mN/m.

And the “stronger lipase inhibition activity than iturin” value (Mucor miehei lipase [4])?
Its value is “about 10 -fold”.

What about the “Inhibition effect: Type” value (Mucor miehei lipase [5]) of the same molecule?
The value was “Competitive inhibition”.

And the “Inhibition effect: Type” value (Mucor miehei lipase [5]; listed as surfactin)?
The value was “competitive”.

And the “IC50, Calculated” value (Mucor miehei lipase [5])?
The value was 1 mg/L.

And the “Inhibition effect: Mechanisms” value (Mucor miehei lipase [5])?
The value was “Reversible”.

What about the “Inhibition constant KI” value (Mucor miehei lipase [5]) of the same molecule?
The value was 1 mg/L.

B1: surfactin standard (peptide)
chain: ELLVDLL
modifications: not fully specified (residues 3, 6, N-terminus, bridges); also: cyclic peptide ring with beta-hydroxy fatty acid chain, attachment not given here
Which “IC50 (calculated) of inhibition of lipase activity” value (Mucor miehei lipase [8]) does the source give for B1 here?
Its value is 1 mg/L.

And the “IC50 (measured) of inhibition of lipase activity (4-NPP hydrolysis)” value (Mucor miehei lipase [8])?
The value was 5 mg/L.
